Results as given in the NIST ThermoML archive (doi:10.1016/j.jct.2014.09.020).

Assay: xn = mol fraction of the nth substance listed
Details: Liquid; for speed of sound: Frequency=4 MHz, Single path-length method; for mass density: Vibrating tube method

c1ccc2c(c1)CCCC2 [1,2,3,4-tetrahydronaphthalene] + CCCCCCCCCC
Details | mass density, 100 kPa [kg/m3] | speed of sound, 100 kPa [m/s] | speed of sound, 5000 kPa [m/s] | speed of sound, 10000 kPa [m/s] | speed of sound, 15000 kPa [m/s] | speed of sound, 20000 kPa [m/s] | speed of sound, 25000 kPa [m/s]
313.15 K, x2 = 0 | 952.93 | 1413 | 1434 | 1455 | 1475 | 1495 | 1513
313.15 K, x2 = 0.2501 | 877.12 | 1331 | 1356 | 1380 | 1402 | 1424 | 1445
313.15 K, x2 = 0.5005 | 813.93 | 1265 | 1293 | 1319 | 1346 | 1370 | 1394
313.15 K, x2 = 0.7502 | 760.5 | 1214 | 1244 | 1273 | 1302 | 1329 | 1354
323.15 K, x2 = 0 | 944.99 | 1374 | 1397 | 1419 | 1439 | 1459 | 1480
323.15 K, x2 = 0.2501 | 869.27 | 1291 | 1317 | 1342 | 1365 | 1389 | 1411
323.15 K, x2 = 0.5005 | 806.15 | 1228 | 1255 | 1283 | 1310 | 1336 | 1361
323.15 K, x2 = 0.7502 | 752.77 | 1175 | 1207 | 1238 | 1268 | 1296 | 1321
333.15 K, x2 = 0 | 937.04 | 1335 | 1359 | 1383 | 1402 | 1425 | 1445
333.15 K, x2 = 0.2501 | 861.39 | 1254 | 1281 | 1306 | 1331 | 1356 | 1379
333.15 K, x2 = 0.5005 | 798.33 | 1189 | 1220 | 1249 | 1276 | 1302 | 1327
333.15 K, x2 = 0.7502 | 744.98 | 1137 | 1174 | 1204 | 1234 | 1263 | 1292

c1ccc2c(c1)CCCC2 [1,2,3,4-tetrahydronaphthalene] + CCCCCCCCCCCCCCCC
Details | mass density, 100 kPa [kg/m3] | speed of sound, 100 kPa [m/s] | speed of sound, 5000 kPa [m/s] | speed of sound, 10000 kPa [m/s] | speed of sound, 15000 kPa [m/s] | speed of sound, 20000 kPa [m/s] | speed of sound, 25000 kPa [m/s]
313.15 K, x2 = 0 | 952.93 | 1413 | 1434 | 1455 | 1475 | 1495 | 1513
313.15 K, x2 = 0.2491 | 871.85 | 1346 | 1371 | 1395 | 1418 | 1441 | 1461
313.15 K, x2 = 0.4995 | 820.52 | 1315 | 1342 | 1367 | 1391 | 1414 | 1438
313.15 K, x2 = 0.75 | 785.3 | 1298 | 1326 | 1352 | 1378 | 1403 | 1427
323.15 K, x2 = 0 | 944.99 | 1374 | 1397 | 1419 | 1439 | 1459 | 1480
323.15 K, x2 = 0.2491 | 864.36 | 1311 | 1337 | 1361 | 1385 | 1408 | 1429
323.15 K, x2 = 0.4995 | 813.31 | 1278 | 1306 | 1333 | 1358 | 1383 | 1406
323.15 K, x2 = 0.75 | 778.26 | 1262 | 1291 | 1319 | 1345 | 1369 | 1393
333.15 K, x2 = 0 | 937.04 | 1335 | 1359 | 1383 | 1402 | 1425 | 1445
333.15 K, x2 = 0.2491 | 856.85 | 1274 | 1300 | 1326 | 1350 | 1374 | 1396
333.15 K, x2 = 0.4995 | 806.07 | 1242 | 1271 | 1298 | 1325 | 1350 | 1374
333.15 K, x2 = 0.75 | 771.21 | 1224 | 1253 | 1282 | 1309 | 1335 | 1361
